Laboratory results published in ChEMBL document CHEMBL5113402, “Inhibition of cytochrome P450 monooxygenase-catalyzed oxylipin formation by flavonoids: Evaluation of structure-activity relationship towards CYP4F2-selective inhibitors” (Eur J Med Chem, 2022).
Values after ≈ are worked out from the molar mass of the structure shown.

Legend:
[1] = Plasma protein binding in human assessed as bound fraction by rapid equilibrium dialysis assay; assay type: ADME, cell-free; conditions: read-out: PPB
Cytochrome P450 4A11 = target: T1, Cytochrome P450 4A11 (Homo sapiens, UniProt Q02928); assay: Inhibition of recombinant human CYP4A11 expressed in baculovirus-infected insect cells in presence of arachidonic acid and NADPH incubated for 15 mins by jump-dilution assay relative to control; assay type: ADME
T1 sequence (Q02928 whole entry): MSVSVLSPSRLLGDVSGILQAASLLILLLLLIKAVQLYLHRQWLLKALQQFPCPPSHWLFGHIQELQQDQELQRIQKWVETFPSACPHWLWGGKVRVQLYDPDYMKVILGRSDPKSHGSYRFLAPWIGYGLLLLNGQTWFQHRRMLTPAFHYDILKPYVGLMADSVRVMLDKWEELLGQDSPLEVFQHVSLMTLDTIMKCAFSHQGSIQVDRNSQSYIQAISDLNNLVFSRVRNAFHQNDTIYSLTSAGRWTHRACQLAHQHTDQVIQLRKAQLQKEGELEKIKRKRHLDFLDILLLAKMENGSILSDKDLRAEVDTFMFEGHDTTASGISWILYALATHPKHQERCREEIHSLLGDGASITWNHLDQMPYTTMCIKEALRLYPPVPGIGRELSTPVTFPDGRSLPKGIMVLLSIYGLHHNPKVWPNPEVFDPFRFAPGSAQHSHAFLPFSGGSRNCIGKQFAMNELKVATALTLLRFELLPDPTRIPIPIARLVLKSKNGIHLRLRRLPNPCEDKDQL

[2] = target: T2, CYP450 (20-HETE formation) (Homo sapiens, UniProt P04798+P05177+P05181+P08684+P10632+P10635+P11509+P11712+P13584+P20813+P20815+P20853+P24462+P24903+P33260+P33261+P51589+P78329+P98187+Q02928+Q08477+Q16678+Q16696+Q5TCH4+Q6VVX0+Q7Z449+Q8TAV3+Q96SQ9+Q9HB55); assay: Inhibition of CYP450 in human liver microsomes assessed as inhibition of 20-HETE formation at 10 uM in presence of arachidonic acid and NADPH by multi-enzyme assay based LC-MS/MS analysis relative to control; assay type: ADME, Microsome; conditions: probe arachidonic acid
[3] = target: CYP450 (EpETrE formation) (Homo sapiens, UniProt P04798+P05177+P05181+P08684+P10632+P10635+P11509+P11712+P13584+P20813+P20815+P20853+P24462+P24903+P33260+P33261+P51589+P78329+P98187+Q02928+Q08477+Q16678+Q16696+Q5TCH4+Q6VVX0+Q7Z449+Q8TAV3+Q96SQ9+Q9HB55); assay: Inhibition of CYP450 in human liver microsomes assessed as inhibition of EpETrE formation at 10 uM in presence of arachidonic acid and NADPH by multi-enzyme assay based LC-MS/MS analysis relative to control; assay type: ADME, Microsome; conditions: probe arachidonic acid
[4] = Octanol-water partition coefficient, logP of the compound incubated for 1 hr by HPLC analysis; assay type: physicochemical
[5] = target: T2, CYP450 (20-HETE formation); assay: Inhibition of CYP450 in human HCT-116 cells assessed as 20-HETE formation in presence of arachidonic acid incubated for 15 mins by multi-enzyme assay based LC-MS/MS analysis; assay type: ADME, cell-based; conditions: probe arachidonic acid
[6] = Apparent permeability of the compound by PAMPA assay; assay type: ADME
[7] = Drug recovery in human liver microsomes assessed as UDPGA-fortified conjugation recovery in presence of arachidonic acid incubated for 30 mins; assay type: ADME, Microsome; conditions: read-out: Drug recovery
[8] = Solubility of the compound in phospahte-buffered saline buffer at pH 7.4 by shake flask method; assay type: physicochemical; conditions: phosphate-buffered saline
CYP2J2 = target: T3, CYP2J2 (Homo sapiens, UniProt P51589); assay: Inhibition of recombinant human CYP2J2 expressed in baculovirus-infected insect cells at 50 uM incubated for 15 mins in presence of arachidonic acid and NADPH by jump-dilution assay relative to control; assay type: ADME; conditions: probe arachidonic acid
T3 sequence (P51589 whole entry): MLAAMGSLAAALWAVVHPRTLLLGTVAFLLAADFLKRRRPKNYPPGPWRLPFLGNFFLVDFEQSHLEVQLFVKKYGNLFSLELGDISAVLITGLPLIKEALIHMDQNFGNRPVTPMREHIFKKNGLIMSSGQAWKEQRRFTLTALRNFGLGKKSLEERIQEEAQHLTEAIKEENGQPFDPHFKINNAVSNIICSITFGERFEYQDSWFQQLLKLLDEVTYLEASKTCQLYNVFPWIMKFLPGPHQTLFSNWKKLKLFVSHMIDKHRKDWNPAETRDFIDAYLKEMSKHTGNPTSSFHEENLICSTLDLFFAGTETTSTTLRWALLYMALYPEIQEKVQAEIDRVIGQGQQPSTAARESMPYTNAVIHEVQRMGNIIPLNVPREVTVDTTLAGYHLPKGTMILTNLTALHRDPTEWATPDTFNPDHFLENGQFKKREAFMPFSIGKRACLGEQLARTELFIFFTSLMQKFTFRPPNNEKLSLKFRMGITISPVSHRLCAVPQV

## O=c1cc(-c2ccc(C(F)(F)F)cc2)oc2ccccc12
[1]
  fraction unbound: < 0.05
Cytochrome P450 4A11
  IC50: 50 µM
[2]
  inhibition at 10 µM: 53%
[3]
  inhibition at 10 µM: < 15%
[4]
  logP at 1 h: 4.06
[5]
  IC50 at 15 min: 1.1 µM
[6]
  Papp: 4.6 ×10⁻⁶ cm/s
[7]
  remaining at 0.5 h: > 95%
[8]
  solubility thermodynamic: 3.4 µM (≈ 0.987 µg/mL)
CYP2J2
  inhibition at 0.25 h, 50 µM: < 25%
